Source: patent publication US20030190322A1, “Immunostimulating properties of a fragment of tgf-beta” (priority 2000, published 2003)
No end group written: not given here.

Legend:
[1] = system: parvovirus peptide; test: ELISA antibody titre to parvovirus peptide in rabbits, TGF-29 dose experiment with Titermax adjuvant (Example 3); type: in vivo; settings: group with highest dose TGF-29 (20 ug) plus 100 μg parvovirus peptide and Titermax adjuvant (preparation Iris); one rabbit, bleeding T3, 6 weeks after first immunisation
Method: Both preparations were subcutaneously injected into 2 groups of rabbits. Each injected dose was 0.1 mL and the preparations for a resulting volume between 0.4 and 0.5 mL was made as follows:
Each injected dose of 0.1 mL therefore contains approximate 4 ug TGF-29 and 100 ug parvovirus peptide.
Into the same vial 154 microliter H2O was added and the combined fractions subsequently mixed by stirring a few seconds and then transferred in drops, while stirring, into a small 1.8 mL plast vial preloaded with 250 microliter Titermax adjuvant. The resulting volume of the water-in-oil emulsion volume was a little more than 0.4 mL. Each injected dose of 0.1 mL therefore contains approximate 20 μg TGF-29 and 100 μg parvovirus peptide.
The rabbits were then immunised according to the normal standard immunisation procedure for antibody production in rabbits at a legal laboratory animal facility.
Before immunisation, a pre-immunisation serum sample (To) of each rabbit was collected. […]
(§1) The serum samples were analysed on an ELISA plate according to standard laboratory operations: Coating the plate bottom with parvo virus peptide derivative overnight, washings, incubation with serial dilutions of all serum samples, washings, incubation with HRP-Goat anti Rabbit 1 g, washings, incubation with substrate, stop reaction with acid, and reading of the plate.

[2] = system: parvovirus peptide; test: ELISA antibody titre to parvovirus peptide in rabbits immunised with Parv or Parv+TGF-29 (Example 1); type: in vivo; settings: subcutaneous, 3 immunisations at 2 week intervals, freunds incomplete adjuvant
Method: Both preparations were subcutaneously injected into 2 groups of rabbits. The con-tent of each injected dose of 0.2 mL were;
50 microgram parvovirus peptide was dissolved in 0.05 mL PBS and subsequently mixed with 0.05 mL PBS by stirring. The combined fractions were then mixed with 0.1 mL freunds incomplete adjuvant by stirring.
50 microgram parvovirus peptide was dissolved in 0.05 mL PBS and subsequently mixed with 100 microgram of a crude fraction comprising TGF-29 dissolved in 0.05 mL PBS, and then the combined fractions were mixed with 0.1 mL freunds incomplete adjuvant by stirring,
The rabbits were immunised by subcuteous injection according to normal standard immunisation procedures for antibody production in rabbits at a legal laboratory animal facility.
Before immunisation, a pre-immunisation serum sample (T0) of each rabbit were collected. Two weeks after the last of 3 immunisations (given at 2 week intervals) an immune serum sample (T1) was collected from each rabbit. […]
as §1, with “operations.” for “operations:”

ALDAAYCFRNVQDNCCLRPLYIDFKRDLG (cysteine pairing not given here) [TGF-29]
titer to the parvovirus peptide compared with T0 serum (highest of all bleedings) [1]: more than three 5-fold serial antiserum dilutions better than the corresponding T0 serum

acetyl-CDGAVQPDGGQPAVRNER-amide (Ac-CDGAVQPDGGQPAVRNER-NH2) [Parv]
antibody titre to the parvovirus peptide, immune serum samples compared with T0 sera [2]: Non-detectable or less antibody titre to the parvovirus peptide than in the corresponding to sera
